Where “and” joins values, the source holds several entries; their conditions need not be identical. Equal values may be shown once. Where a name gives a salt, the structure may show the parent alone.
Legend:
human μ-opiate receptor = molecular target: T1, human μ-opiate receptor (Homo sapiens, UniProt P35372); assay: In vitro opiate receptor radioligand binding assay (MDS 260410); details: test compound 10 μM, read-out: Percentage Inhibition of Radioligand Binding
T1 construct: purchased MDS Pharma Services 260410
T1 sequence (P35372 whole entry): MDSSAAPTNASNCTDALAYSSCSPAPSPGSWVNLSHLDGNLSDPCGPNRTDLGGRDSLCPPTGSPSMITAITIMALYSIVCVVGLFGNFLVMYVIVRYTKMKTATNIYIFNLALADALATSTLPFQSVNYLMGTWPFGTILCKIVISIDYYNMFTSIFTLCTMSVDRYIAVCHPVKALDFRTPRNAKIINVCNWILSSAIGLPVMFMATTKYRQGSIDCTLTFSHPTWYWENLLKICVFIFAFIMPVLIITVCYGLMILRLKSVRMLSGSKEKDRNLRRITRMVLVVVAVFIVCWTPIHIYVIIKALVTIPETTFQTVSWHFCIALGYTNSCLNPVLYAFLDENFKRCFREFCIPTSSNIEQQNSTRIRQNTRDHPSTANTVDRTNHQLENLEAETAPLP
Experimental: (§1) To characterise the target specificity of the compounds, KRS-6-41, KRS-6-48 and KRS-6-51 were tested at a concentration of 10 μM for their ability to inhibit the binding of a radioligand to human δ-, κ-, or μ-opiate receptors in vitro using commercially available assays (MDS Pharma Services; assay catalogue numbers 260110, 260210 and 260410 respectively).

ICR mice [1] = assay: Phenylquinone-induced writhing model in mice (writhes counted in following 5-10 minute period); format: in vivo; details: for No. of Writhings, Individual: individual mice; for % Inhibition: relative to vehicle group
Experimental: (§2) Testing on compound KRS-6-48 was carried out under contract by MDS Services—Taiwan Ltd. KRS-6-48 was evaluated for possible analgesic activity in the phenylquinone-induced writhing model in mice (Siegmund et al, 1957). A serial 2-fold dosage variance was used in the test, from 128 mg/kg to 1 mg/kg (8 doses in total). Groups of 3 male or female ICR mice weighing 22±2 g were employed. Variant doses (1, 2, 4, 8, 16, 32, 64 and 128 mg/kg) of test substances were administered intraperitoneally (IP). A vehicle of 2% Tween 80 in 0.9% NaCl was used for the intraperitoneal injection. The control group received vehicle alone. […] A reduction in the number of writhes by 50 percent or more (≧50%) relative to the vehicle-treated group indicated possible analgesic activity.
Testing on compounds KRS-6-41, KRS-6-51, and KRS-6-71 was also carried out under contract by MDS Services—Taiwan Ltd. The study was designed to evaluate the effects of the compounds as analgesics in the phenylquinone-induced writhing assay described in detail in Example 10 (Siegmund et al, 1957).
as §2, with “In each case, a” for “Testing on compound KRS-6-48 was carried out under contract by MDS Services—Taiwan Ltd. KRS-6-48 was evaluated for possible analgesic activity in the phenylquinone-induced writhing model in mice (Siegmund et al, 1957). A”

human δ-opiate receptor = molecular target: T2, human δ-opiate receptor (Homo sapiens, UniProt P41143); assay: In vitro opiate receptor radioligand binding assay (MDS 260110); details: test compound 10 μM, read-out: Percentage Inhibition of Radioligand Binding
T2 construct: purchased MDS Pharma Services 260110
T2 sequence (P41143 whole entry): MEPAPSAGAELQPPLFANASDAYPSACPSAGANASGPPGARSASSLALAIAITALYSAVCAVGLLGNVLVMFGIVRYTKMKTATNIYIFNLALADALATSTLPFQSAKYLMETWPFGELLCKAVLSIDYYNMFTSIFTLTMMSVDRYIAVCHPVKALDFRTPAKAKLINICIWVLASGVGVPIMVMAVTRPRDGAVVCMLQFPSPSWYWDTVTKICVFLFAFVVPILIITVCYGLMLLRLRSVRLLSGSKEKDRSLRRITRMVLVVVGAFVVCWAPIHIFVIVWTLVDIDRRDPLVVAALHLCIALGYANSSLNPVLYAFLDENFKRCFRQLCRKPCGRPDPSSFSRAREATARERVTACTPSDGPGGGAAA
Experimental: as §1

ICR mice [2] = assay: Straub tail behaviour (indicator of CNS activity) in writhing-study mice; details: any doses (1 to 128 mg/kg IP)
human κ-opiate receptor = molecular target: T3, human κ-opiate receptor (Homo sapiens, UniProt P41145); assay: In vitro opiate receptor radioligand binding assay (MDS 260210); details: test compound 10 μM, read-out: Percentage Inhibition of Radioligand Binding
T3 construct: purchased MDS Pharma Services 260210
T3 sequence (P41145 whole entry): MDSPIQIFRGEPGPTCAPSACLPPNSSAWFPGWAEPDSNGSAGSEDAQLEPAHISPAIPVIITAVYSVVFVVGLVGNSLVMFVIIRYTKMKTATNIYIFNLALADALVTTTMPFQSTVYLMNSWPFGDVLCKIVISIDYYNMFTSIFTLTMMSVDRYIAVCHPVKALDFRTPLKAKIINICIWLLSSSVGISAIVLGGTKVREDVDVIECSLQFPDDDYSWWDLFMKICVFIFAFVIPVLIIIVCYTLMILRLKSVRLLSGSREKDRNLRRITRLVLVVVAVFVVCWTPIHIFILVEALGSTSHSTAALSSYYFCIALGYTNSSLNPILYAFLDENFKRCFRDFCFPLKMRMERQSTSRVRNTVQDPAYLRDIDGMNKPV
Experimental: as §1

ICR mice [3] = assay: Deaths and adverse signs observed in writhing-study mice; format: in vivo
Experimental: as §2
as §2, with “In each case, a” for “Testing on compound KRS-6-48 was carried out under contract by MDS Services—Taiwan Ltd. KRS-6-48 was evaluated for possible analgesic activity in the phenylquinone-induced writhing model in mice (Siegmund et al, 1957). A”

## CCC(=Nc1ccccc1)NCCCN1CC[C@]23c4c5ccc(O)c4O[C@H]2[C@@H](O)C=CC3[C@H]1C5 (stereo partly drawn) (as salt: HCl) [KRS-6-48, (5α,6α)-7,8-didehydro-4,5-epoxy-17-((N-phenylpropionamidino)-propyl)morphinan, 3,6-diol]
other
  melting point: 188 to 190 °C

## CC(=N)NCCCN1CC[C@]23c4c5ccc(O)c4O[C@H]2[C@@H](O)C=CC3[C@H]1C5 (stereo partly drawn) [KRS-6-41, (5α,6α)-7,8-didehydro-4,5-epoxy-17-(3-acetamidinopropyl)morphinan, 3,6-diol]
Human μ-opiate receptor
  inhibition at 10 µM: 97%
ICR mice [1]; 1 mg/kg IP
  No. of Writhings, Average: 14
  No. of Writhings, Individual: 12 and 15 and 14
  % Inhibition: 0%
ICR mice [1]; 2 mg/kg IP
  No. of Writhings, Average: 14
  No. of Writhings, Individual: 14 and 6 and 22
  % Inhibition: 0%
ICR mice [1]; 4 mg/kg IP
  No. of Writhings, Average: 12
  No. of Writhings, Individual: 14 and 8 and 15
  % Inhibition: 8%
ICR mice [1]; 8 mg/kg IP
  No. of Writhings, Average: 10
  No. of Writhings, Individual: 6 and 10 and 14
  % Inhibition: 23%
ICR mice [1]; 16 mg/kg IP
  No. of Writhings, Average: 9
  No. of Writhings, Individual: 5 and 16 and 6
  % Inhibition: 31%
ICR mice [1]; 32 mg/kg IP
  No. of Writhings, Average: 8
  No. of Writhings, Individual: 4 and 10 and 11
  % Inhibition: 38%
ICR mice [1]; 64 mg/kg IP
  No. of Writhings, Individual: 4 and 14 and died
ICR mice [1]; 128 mg/kg IP
  No. of Writhings, Individual: died
ICR mice [1]; at doses of 32, 16, 8 and 4 mg/kg IP
  inhibition of writhing (in words): a moderate level of inhibition of writhing
Human δ-opiate receptor
  inhibition at 10 µM: 68%
ICR mice [2]
  Straub tail behaviour: None exhibited Straub tail behaviour
Human κ-opiate receptor
  inhibition at 10 µM: 58%
ICR mice [3]; 64 mg/kg IP
  test animals died: 1 of 3
ICR mice [3]; 128 mg/kg IP
  test animals died: 3 of 3

## CCC(=Nc1ccccc1)NCCCN1CC[C@]23c4c5ccc(O)c4O[C@H]2[C@@H](O)C=CC3[C@H]1C5 (stereo partly drawn) [KRS-6-48, (5α,6α)-7,8-didehydro-4,5-epoxy-17-((N-phenylpropionamidino)-propyl)morphinan, 3,6-diol]
Human μ-opiate receptor
  inhibition at 10 µM: 97%
ICR mice [1]; 1 mg/kg IP
  No. of Writhings, Average: 14
  No. of Writhings, Individual: 10 and 20 and 13
  % Inhibition: 0%
ICR mice [1]; 2 mg/kg IP
  No. of Writhings, Average: 13
  No. of Writhings, Individual: 8 and 20 and 10
  % Inhibition: 0%
ICR mice [1]; 4 mg/kg IP
  No. of Writhings, Average: 9
  No. of Writhings, Individual: 10 and 8 and 9
  % Inhibition: 31%
ICR mice [1]; 8 mg/kg IP
  No. of Writhings, Average: 7
  No. of Writhings, Individual: 12 and 4 and 5
  % Inhibition: 46%
ICR mice [1]; 16 mg/kg IP
  No. of Writhings, Average: 6
  No. of Writhings, Individual: 1 and 13 and 4
  % Inhibition: 54%
ICR mice [1]; 32 mg/kg IP
  No. of Writhings, Average: 1
  No. of Writhings, Individual: 0 and 1 (2×)
  % Inhibition: 92%
ICR mice [1]; 64 mg/kg IP
  No. of Writhings, Average: 0
  No. of Writhings, Individual: 0
  % Inhibition: 100%
ICR mice [1]; 128 mg/kg IP
  No. of Writhings, Average: 0
  No. of Writhings, Individual: 0
  % Inhibition: 100%
ICR mice [1]; at doses of 128, 64, 32 and 16 mg/kg IP
  analgesic activity in writhing model (in words): Very significant activity
Human δ-opiate receptor
  inhibition at 10 µM: 29%
ICR mice [2]
  Straub tail behaviour: did not exhibit Straub tail behaviour
Human κ-opiate receptor
  inhibition at 10 µM: 48%
